For 1 compound, IC50, Ki and Type of inhibition results are on record in publication PMC4916434, “Evaluation of the inhibition potential of plumbagin against cytochrome P450 using LC-MS/MS and cocktail approach” (Scientific Reports, 2016).

Each structure is given as a SMILES string.

The data set has as its target T1, CYP2C11 (Rattus norvegicus, UniProt P08683).
T1 construct: consisting of pooled HLMs (0.5 mg/ml) or RLMs (1 mg/ml) and an NADPH-regenerating system; from tissue; host or cells: rat liver microsomes prepared in house
T1 sequence (P08683 1-500): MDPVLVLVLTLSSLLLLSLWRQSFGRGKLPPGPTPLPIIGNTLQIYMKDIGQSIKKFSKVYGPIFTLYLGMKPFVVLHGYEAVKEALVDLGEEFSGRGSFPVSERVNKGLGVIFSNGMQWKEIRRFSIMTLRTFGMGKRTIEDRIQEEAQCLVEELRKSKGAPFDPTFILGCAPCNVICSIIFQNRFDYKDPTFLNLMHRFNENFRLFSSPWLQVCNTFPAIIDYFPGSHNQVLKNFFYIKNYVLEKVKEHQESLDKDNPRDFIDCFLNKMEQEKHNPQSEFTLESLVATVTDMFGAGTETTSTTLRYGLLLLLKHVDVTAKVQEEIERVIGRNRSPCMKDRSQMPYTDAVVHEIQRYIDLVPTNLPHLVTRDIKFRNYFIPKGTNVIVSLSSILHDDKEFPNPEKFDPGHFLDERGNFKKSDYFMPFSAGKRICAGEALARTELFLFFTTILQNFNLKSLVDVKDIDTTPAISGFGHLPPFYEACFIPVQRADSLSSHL
It is filed as in vitro ADME. As to the method: In this study, the rats were fasted overnight and killed by cervical dislocation before removal of the liver. The liver was excised, rinsed with ice-cold saline (0.9% NaCl w/v), weighed and homogenized in a […] Tris/KCl buffer (pH 7.4). Subsequently, the homogenate was centrifuged at 10,000 × g at 4 °C for 30 min. The supernatant was then centrifuged at 105,000 × g at 4 °C for 60 min. The pellet was reconstituted with […] Tris/KCl buffer (pH 7.4) and stored at −150 °C until use. The protein concentration of the liver microsomes was determined by a protein quantitative assay using bicinchoninic acid[22].
Microsomal incubation was carried out at 37 °C in a mixture of 200 μl in 0.05 M Tris/HCl buffer (pH 7.4) consisting of pooled HLMs (0.5 mg/ml) or RLMs (1 mg/ml) and an NADPH-regenerating system including MgCl2 (5 mM), G6P (10 mM), G6PDH (0.4 U/ml) and NADP (1 mM). Substrates were added into the incubation mixture and obtained the final concentrations (10 μM phenacetin for CYP1A2, 20 μM bupropion for CYP2B1/6, 20 μM tolbutamide for CYP2C9/11, 5 μM dextromethorphan for CYP2D1/6, 20 μM chlorzoxazone for CYP2E1 and 10 μM midazolam for CYP3A2/4), which were close to Km respectively. The proportion of organic solvent was not higher than 1% (v/v) in the incubation mixture. After pre-incubation for 5 min, the reaction was initiated by addition of NADP. Incubations were performed for 20 min, stopped by adding 200 μl ice-cold acetonitrile. And then 20 μl internal standard solution was added (3-acetamidophenol 2 μg/ml, chlorpropamide 2 μg/ml and mebendazole 2 μg/ml). The solution was mixed thoroughly for 3 min and centrifuged for 10 min at 16,000 × g at 4 °C. The supernatant (60 μl) was transferred to autosampler vials, and 2 μl was injected into LC-MS/MS system.
The IC50 (concentration of inhibitor to cause 50% inhibition of original enzyme activity) values were determined with the same incubation condition above. The specific concentrations of plumbagin were ranged from 0.1 μM to 50 μM. The IC50 values were calculated by plotting relative activities over the logarithm of plumbagin concentrations using GraphPad Prism 5.0 (GraphPad software Inc., CA, USA).
Cocktail probe substrates were then added and incubated for 20 min. Reactions were stopped with 200 μl ice-cold acetonitrile. The samples were treated according to the microsomal incubation method and then injected into LC-MS/MS for analysis.
Kinetic studies were performed for determining the types of inhibition on CYP by plumbagin. Pooled HLMs (0.5 mg/ml) or RLMs (1 mg/ml) with plumbagin (1 μM, 2 μM, 5 μM and 10 μM) were incubated in 0.05 M Tris/HCl buffer (pH 7.4) for 20 min at 37 °C. A series of concentrations for cocktail probe substrates were used: 2.5–20 μM phenacetin for CYP1A2; 5–40 μM bupropion for CYP2B1/6; 5–40 μM tolbutamide for CYP2C9/11; 1.25–10 μM dextromethorphan for CYP2D1/6; 5–40 μM chlorzoxazone for CYP2E1; 2.5–80 μM midazolam for CYP3A2; and 0.625–5 μM midazolam for CYP3A4. Enzyme kinetics as well as statistical analysis were performed using GraphPad Prism 5.0.
All data were presented as mean ± SD. The IC50 values were fitted by non-linear regression analysis using GraphPad Prism 5.0. The kinetic parameters were obtained by fitting velocity data to kinetic models (Michaelis-Menten) using GraphPad Prism 5.0. The Lineweaver-Burk Plot (the reciprocal of reaction velocities versus the reciprocal of substrates concentrations) was used to determine the quality of fit to a specific inhibition model. The inhibition constant (Ki) was obtained by a secondary plot using the slopes of the primary Lineweaver-Burk Plot (Km/Vmax versus inhibitor concentrations). αKi was obtained from a secondary plot using the y-intercepts of the Lineweaver-Burk plot (1/Vmax versus inhibitor concentrations). All results were analyzed in quadruplicate. One-way analysis of variance was used to estimate the significance of differences. […]

For the compound `CC1=CC(=O)c2c(O)cccc2C1=O` [plumbagin, 5-hydroxy-2-methyl-1,4-naphthoquinone], the IC50 is 3.85 µM, the Ki is 7.85 µM and the Type of inhibition result is given as “competitive”.

A word on the IC50: it is the concentration needed to halve the response being measured. Lower therefore signals higher potency. Broadly, the Ki is the equilibrium dissociation constant of an inhibitor or competing ligand from its target.
